Measurements: PubChem BioAssay AID1918991 (Molecular Pharmacology Branch, DTP, NCI, 2023)
“And” between values parts separate entries of the source, which are not always exact repeats. Identical values can stand only once.

Test system: 186277-243-T-J2-PDC complex spheroid growth
Test: Anticancer human tumor 186277-243-T-J2-PDC patient-derived colon adenocarcinoma cell line growth inhibition [AhR]
Settings: for viability, T/C: stronger effect = lower value
From the text: Multicellular complex tumor spheroid response to aryl hydrocarbon receptor antagonists in combination with a variety of drugs and investigational agents in selected tumor cell lines
The current study was undertaken to assess response to aryl hydrocarbon receptor antagonists in combination with standard-of-care drugs and investigational agents in solid tumor complex spheroid models. Complex spheroids include a stromal component modeled by human endothelial cells (HUVEC) and fibroblasts modeled by human mesenchymal stem cells (MSCs). The concentration ranges selected for each drug and investigational agent were based upon clinically achievable concentrations if the clinical Cmax of the agent was known.
Compounds. The drugs and investigational agents: BAY 2416964 (NSC825713), GNF351 (NSC835774), CH-223191 (NSC835775), CPI-455 (NSC825282), aza-TdCyd (NSC777586), decitabine (NSC127716), belinostat (NSC758774), entinostat (NSC756642), pevonedistat (NSC761192), tazemetostat (NSC777109), talazoparib (NSC765396), olaparib (NSC753686), selinexor (NSC780203), nedisertib (M3814, NSC802822), bortezomib (NSC756655), venetoclax (NSC766270), doxorubicin (NSC123127), elimusertib (BAY189344, NSC800525), ceralasertib (AZD6738, NSC777638), TAK-243 (NSC785004), alisertib (NSC759677), etoposide (NSC141540), topotecan (NSC609699), eribulin (NSC707389), gemcitabine (NSC613327), carboplatin (NSC241240), cisplatin (NSC119875), and SN-38 (NSC673596) were obtained from the National Cancer Institute (NCI) Developmental Therapeutics Program Chemical Repository (32). The FDA-approved anticancer drug set is available from the Developmental Therapeutics Program at https://dtp.cancer.gov/organization/dscb/obtaining/available plates.htm. […] The stock solutions were prepared in dimethyl sulfoxide (DMSO, Sigma-Aldrich, St. Louis, MO, cat. D2650), except for the platinum compounds which were prepared in saline (Quality Biological, Gaithersburg, MD, cat. 114-055-101), at 800-fold the tested concentration and stored at -70 degrees C prior to their use. All drugs and investigational agents were tested over a range starting from a high concentration at or near the clinical Cmax and decreasing in half-log increments. If the clinical Cmax for an agent had not been determined, the highest concentration tested was 10 microM (Table 1).
Cell Culture. All cells were maintained in an incubator at 37 degrees C and 5% CO2 with 95% humidity. The PDC lines were cultured according to standard operating procedures established by the NCI PDMR (https://pdmr.cancer.gov). Briefly, all PDCs were thawed and cultured in Matrigel-coated flasks prepared with a working solution of 1X Ham's F-12 nutrient mix, without supplementation (Invitrogen, Waltham, MA, cat. 11765054), 100 U/mL penicillin-streptomycin (Invitrogen, cat. 15140122), and 2.5% Matrigel (Corning Inc., Corning, NY, cat. 354248) for the first three passages. All PDCs were cultured in complete DMEM/F-12 media containing advanced DMEM/F-12 (Invitrogen, cat. 12634028), 4.9% defined fetal bovine serum, heat inactivated (HyClone Laboratories Inc., Logan, UT, cat. SH30070.03HI), 389 ng/mL hydrocortisone (Sigma-Aldrich, cat. H4001), 9.7 ng/mL human EGF recombinant protein (Invitrogen, cat. PHG0313), 23.4 microg/mL adenine (Sigma-Aldrich, cat. A2786), 97.3 U/mL penicillin-streptomycin (Invitrogen, cat. 15140122), 1.9 mM L-glutamine (Invitrogen, cat. 25030081), and 9.7 microM Y-27632 dihydrochloride (Tocris Bioscience, Bristol, United Kingdom, cat. 1254). The PDCs were cultured in complete DMEM/F12 media without 10 microM Y-27632 dihydrochloride for at least two passages prior to the screen. The established cell lines NCI-H1341 and […] were cultured in DMEM/F-12, HEPES (Invitrogen, cat. 11330032), 5% defined fetal bovine serum (HyClone Laboratories Inc., cat. SH30070.03), ITS premix universal culture supplement [insulin (5 microg/mL), transferrin (5 microg/mL), and selenious acid (5 ng/mL)] […]

[1] = curve of first compound, second compound 0.1 µM
[2] = curve of first compound, second compound 0.316 µM
[3] = curve of first compound, second compound 1 µM
[4] = curve of first compound, second compound 3.16 µM
[5] = curve of first compound, second compound 10 µM
[6] = second compound 0.1 µM, first compound 0.0316 µM
[7] = second compound 0.1 µM, first compound 0.1 µM
[8] = second compound 0.1 µM, first compound 0.316 µM
[9] = second compound 0.1 µM, first compound 1 µM
[10] = second compound 0.1 µM, first compound 3.16 µM
[11] = second compound 0.1 µM, first compound 10 µM
[12] = second compound 0.316 µM, first compound 0.0316 µM
[13] = second compound 0.316 µM, first compound 0.1 µM
[14] = second compound 0.316 µM, first compound 0.316 µM
[15] = second compound 0.316 µM, first compound 1 µM
[16] = second compound 0.316 µM, first compound 3.16 µM
[17] = second compound 0.316 µM, first compound 10 µM
[18] = second compound 1 µM, first compound 0.0316 µM
[19] = second compound 1 µM, first compound 0.1 µM
[20] = second compound 1 µM, first compound 0.316 µM
[21] = second compound 1 µM, first compound 1 µM
[22] = second compound 1 µM, first compound 3.16 µM
[23] = second compound 1 µM, first compound 10 µM
[24] = second compound 3.16 µM, first compound 0.0316 µM
[25] = second compound 3.16 µM, first compound 0.1 µM
[26] = second compound 3.16 µM, first compound 0.316 µM
[27] = second compound 3.16 µM, first compound 1 µM
[28] = second compound 3.16 µM, first compound 3.16 µM
[29] = second compound 3.16 µM, first compound 10 µM
[30] = second compound 10 µM, first compound 0.0316 µM
[31] = second compound 10 µM, first compound 0.1 µM
[32] = second compound 10 µM, first compound 0.316 µM
[33] = second compound 10 µM, first compound 1 µM
[34] = second compound 10 µM, first compound 3.16 µM
[35] = second compound 10 µM, first compound 10 µM
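Further: spheroids exposed to compounds for seven days before the viability read.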
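Wherever viability, T/C is given: luminescent signal used as a stand-in for viable cell amount; 100% = DMSO vehicle control wells.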

SMILES: CC1(C)CCC(CN2CCN(c3ccc(C(=O)NS(=O)(=O)c4ccc(NCC5CCOCC5)c([N+](=O)[O-])c4)c(Oc4cnc5[nH]ccc5c4)c3)CC2)=C(c2ccc(Cl)cc2)C1 + Cc1ccccc1N=Nc1ccc(NC(=O)c2ccnn2C)c(C)c1
- IC50 [1]: 7.46 µM
- IC50 [2]: 6.9 µM
- IC50 [3]: 7.32 µM
- IC50 [4]: 6.94 µM
- IC50 [5]: 6.27 µM
- viability, T/C [6]: 95.1%
- viability, T/C [7]: 98.9%
- viability, T/C [8]: 115%
- viability, T/C [9]: 110%
- viability, T/C [10]: 103%
- viability, T/C [11]: 31.8%
- viability, T/C [12]: 94.1%
- viability, T/C [13]: 108%
- viability, T/C [14]: 96.4%
- viability, T/C [15]: 100%
- viability, T/C [16]: 87.9%
- viability, T/C [17]: 31.7%
- viability, T/C [18]: 103%
- viability, T/C [19]: 99.3%
- viability, T/C [20]: 110%
- viability, T/C [21]: 98.2%
- viability, T/C [22]: 110%
- viability, T/C [23]: 29.8%
- viability, T/C [24]: 91.3%
- viability, T/C [25]: 91.8%
- viability, T/C [26]: 100%
- viability, T/C [27]: 94.3%
- viability, T/C [28]: 91.2%
- viability, T/C [29]: 30.9%
- viability, T/C [30]: 88.7%
- viability, T/C [31]: 82.5%
- viability, T/C [32]: 95.3%
- viability, T/C [33]: 92.5%
- viability, T/C [34]: 85.7%
- viability, T/C [35]: 25.5%

SMILES: O=C(c1cc(Cc2n[nH]c(=O)c3ccccc23)ccc1F)N1CCN(C(=O)C2CC2)CC1 + Cc1ccccc1N=Nc1ccc(NC(=O)c2ccnn2C)c(C)c1
- IC50 [1]: > 10 µM
- IC50 [2]: > 10 µM
- IC50 [3]: > 10 µM
- IC50 [4]: > 10 µM
- IC50 [5]: > 10 µM
- viability, T/C [6]: 102%
- viability, T/C [7]: 95.4%
- viability, T/C [8]: 95.5%
- viability, T/C [9]: 101%
- viability, T/C [10]: 99.2%
- viability, T/C [11]: 123%
- viability, T/C [12]: 94%
- viability, T/C [13]: 111%
- viability, T/C [14]: 97.5%
- viability, T/C [15]: 101%
- viability, T/C [16]: 100%
- viability, T/C [17]: 127%
- viability, T/C [18]: 105%
- viability, T/C [19]: 87.3%
- viability, T/C [20]: 110%
- viability, T/C [21]: 95.1%
- viability, T/C [22]: 113%
- viability, T/C [23]: 127%
- viability, T/C [24]: 109%
- viability, T/C [25]: 96.5%
- viability, T/C [26]: 104%
- viability, T/C [27]: 101%
- viability, T/C [28]: 106%
- viability, T/C [29]: 111%
- viability, T/C [30]: 85.6%
- viability, T/C [31]: 86.1%
- viability, T/C [32]: 101%
- viability, T/C [33]: 93.3%
- viability, T/C [34]: 93.6%
- viability, T/C [35]: 91.6%

SMILES: COc1cc(Nc2ncc3c(n2)-c2ccc(Cl)cc2C(c2c(F)cccc2OC)=NC3)ccc1C(=O)O + Cc1cncc(-c2nc(NCCc3c[nH]c4ccccc34)c3ncn(C(C)C)c3n2)c1
- IC50 [1]: > 10 µM
- IC50 [2]: > 10 µM
- IC50 [3]: > 10 µM
- IC50 [4]: > 10 µM
- IC50 [5]: < 0.0316 µM
- viability, T/C [6]: 90.2%
- viability, T/C [7]: 77.9%
- viability, T/C [8]: 70.2%
- viability, T/C [9]: 61.6%
- viability, T/C [10]: 70.5%
- viability, T/C [11]: 74.5%
- viability, T/C [12]: 91.9%
- viability, T/C [13]: 78.6%
- viability, T/C [14]: 72.3%
- viability, T/C [15]: 61.8%
- viability, T/C [16]: 67.1%
- viability, T/C [17]: 72.2%
- viability, T/C [18]: 96.9%
- viability, T/C [19]: 75.4%
- viability, T/C [20]: 74.4%
- viability, T/C [21]: 67.1%
- viability, T/C [22]: 64.3%
- viability, T/C [23]: 70.6%
- viability, T/C [24]: 93.2%
- viability, T/C [25]: 71.4%
- viability, T/C [26]: 71.9%
- viability, T/C [27]: 59.4%
- viability, T/C [28]: 63%
- viability, T/C [29]: 71.5%
- viability, T/C [30]: 37.9%
- viability, T/C [31]: 27.4%
- viability, T/C [32]: 23.2%
- viability, T/C [33]: 24.6%
- viability, T/C [34]: 23.8%
- viability, T/C [35]: 31.6%

SMILES: CC(C)c1c(-c2ccccc2)nc2c(C#N)c[nH]n2c1=O
- viability, T/C (compound 0.0316 µM): 103% and 105% and 93.4%
- viability, T/C (compound 0.1 µM): 88.8% and 101% and 94.2%
- viability, T/C (compound 0.316 µM): 107% and 95.9% and 94.8%
- viability, T/C (compound 1 µM): 103% and 113% and 97.7%
- viability, T/C (compound 3.16 µM): 96.4% and 107% and 96.9%
- viability, T/C (compound 10 µM): 92% and 105% and 91.7%
- IC50 (curve of compound): > 10 µM

SMILES: COc1ccc([C@@H](O)c2cc(-c3ncnc4cc(N5CCOCC5)ccc34)c(F)cc2Cl)nn1 + Cc1ccccc1N=Nc1ccc(NC(=O)c2ccnn2C)c(C)c1
- IC50 [1]: > 10 µM
- IC50 [2]: > 10 µM
- IC50 [3]: > 10 µM
- IC50 [4]: > 10 µM
- IC50 [5]: 9.26 µM
- viability, T/C [6]: 100%
- viability, T/C [7]: 98%
- viability, T/C [8]: 92.9%
- viability, T/C [9]: 80.2%
- viability, T/C [10]: 89.6%
- viability, T/C [11]: 55.8%
- viability, T/C [12]: 96.5%
- viability, T/C [13]: 104%
- viability, T/C [14]: 93.6%
- viability, T/C [15]: 80%
- viability, T/C [16]: 86.4%
- viability, T/C [17]: 52.2%
- viability, T/C [18]: 96.5%
- viability, T/C [19]: 101%
- viability, T/C [20]: 101%
- viability, T/C [21]: 98%
- viability, T/C [22]: 104%
- viability, T/C [23]: 62.7%
- viability, T/C [24]: 97.1%
- viability, T/C [25]: 89.4%
- viability, T/C [26]: 89.7%
- viability, T/C [27]: 79.8%
- viability, T/C [28]: 76.2%
- viability, T/C [29]: 54.2%
- viability, T/C [30]: 76.3%
- viability, T/C [31]: 81.9%
- viability, T/C [32]: 91%
- viability, T/C [33]: 80.5%
- viability, T/C [34]: 90.9%
- viability, T/C [35]: 47.5%
